One assay has as its target Carbonic anhydrase 9 (Homo sapiens, UniProt Q16790).
Another assay deals with Carbonic anhydrase 2 (Homo sapiens, UniProt P00918). As to the kind of experiment: Inhibition of human CA2 preincubated for 15 mins by stopped-flow carbon dioxide hydration assay.

The Ki is a measure of affinity in units of concentration, obtained from inhibition or displacement. Read a high Ki as a looser hold on the target.

Description for Carbonic anhydrase 9: Inhibition of human CA9 preincubated for 15 mins by stopped-flow carbon dioxide hydration assay

As to `NS(=O)(=O)c1ccc(C(=O)N2CCN(C(=O)c3ccccc3Cl)CC2)cc1`, the Ki at Carbonic anhydrase 9 was found to be 62.2 nM.
As for `NS(=O)(=O)c1ccc(C(=O)N2CCN(C(=O)c3cccc(Cl)c3)CC2)cc1`, the Ki on Carbonic anhydrase 9 worked out at 54.4 nM; at Carbonic anhydrase 2, 22.5 nM.
For the compound `COc1cccc(C(=O)N2CCN(C(=O)c3ccc(S(N)(=O)=O)cc3)CC2)c1`, the Ki at Carbonic anhydrase 9 amounted to 360 nM; on Carbonic anhydrase 2, 36.3 nM.
With `Nc1ccccc1C(=O)N1CCN(C(=O)c2ccc(S(N)(=O)=O)cc2)CC1`, the Ki worked out at 19.1 nM on Carbonic anhydrase 9 and 4.1 nM at Carbonic anhydrase 2.
On to `NS(=O)(=O)c1ccc(C(=O)N2CCN(C(=O)c3ccc([N+](=O)[O-])cc3)CC2)cc1`, for which the Ki at Carbonic anhydrase 9 is 11.2 nM; at Carbonic anhydrase 2, 23.9 nM.
Regarding `COc1ccccc1C(=O)N1CCN(C(=O)c2ccc(S(N)(=O)=O)cc2)CC1`, the Ki on Carbonic anhydrase 9 stood at 250 nM; on Carbonic anhydrase 2, 19.8 nM.
For the compound `NS(=O)(=O)c1ccc(C(=O)N2CCN(C(=O)c3ccc(F)cc3)CC2)cc1`, the Ki on Carbonic anhydrase 9 amounted to 332 nM; at Carbonic anhydrase 2, 32.4 nM.
Turning to `Nc1ccc(C(=O)N2CCN(C(=O)c3ccc(S(N)(=O)=O)cc3)CC2)cc1`, the Ki turned out to be 14.3 nM at Carbonic anhydrase 9 and 78.8 nM on Carbonic anhydrase 2.
For `NS(=O)(=O)c1ccc(C(=O)N2CCN(C(=O)c3ccccc3)CC2)cc1`, the affinity at Carbonic anhydrase 9 corresponds to a Ki of 37.1 nM.
As to `NS(=O)(=O)c1ccc(C(=O)N2CCN(C(=O)c3ccc(Cl)cc3)CC2)cc1`, the Ki at Carbonic anhydrase 9 came to 29.2 nM; on Carbonic anhydrase 2, 7.2 nM.
On the same counts, the results for `NS(=O)(=O)c1ccc(C(=O)N2CCN(C(=O)c3cccc([N+](=O)[O-])c3)CC2)cc1` are 2.2 nM and 28.6 nM.
With `NS(=O)(=O)c1ccc(C(=O)N2CCN(C(=O)c3cccc(Br)c3)CC2)cc1`, the Ki at Carbonic anhydrase 9 was 16.2 nM; on Carbonic anhydrase 2, 0.6 nM.
Turning to `NS(=O)(=O)c1ccc(C(=O)N2CCN(C(=O)c3ccccc3F)CC2)cc1`, the Ki at Carbonic anhydrase 9 was 68.7 nM; on Carbonic anhydrase 2 it was 28.4 nM.
For `NS(=O)(=O)c1ccc(C(=O)N2CCN(C(=O)c3ccccc3Br)CC2)cc1`, the Ki on Carbonic anhydrase 9 is 60.4 nM; on Carbonic anhydrase 2, 3 nM.
`NS(=O)(=O)c1ccc(C(=O)N2CCN(C(=O)c3ccc(Br)cc3)CC2)cc1`: the inhibitory constant (Ki) was 8 nM on Carbonic anhydrase 9 and 4.4 nM on Carbonic anhydrase 2.
For the compound `NS(=O)(=O)c1ccc(C(=O)N2CCN(C(=O)c3ccccc3[N+](=O)[O-])CC2)cc1`, the Ki is 9.8 nM at Carbonic anhydrase 9 and 42.4 nM on Carbonic anhydrase 2.
On the same counts, the results for `Nc1cccc(C(=O)N2CCN(C(=O)c3ccc(S(N)(=O)=O)cc3)CC2)c1` are 15.2 nM and 51.1 nM.
Take `NS(=O)(=O)c1ccc(C(=O)N2CCN(C(=O)c3cccc(F)c3)CC2)cc1`: the Ki at Carbonic anhydrase 9 worked out at 3.8 nM; at Carbonic anhydrase 2, 0.41 nM.

For the origin of these results see ChEMBL document CHEMBL4602738, “Looking toward the Rim of the Active Site Cavity of Druggable Human Carbonic Anhydrase Isoforms” (ACS Med Chem Lett, 2020).
